The molecules below were run on NFkB activity (assay: Glucocorticoid mediated transrepression of NFkB activity (A549 cells, ELAM promoter alkaline phosphatase reporter, TNFα stimulated)). Conditions: Homo sapiens, A549, 16 h, Human A549 lung epithelial cells, 3 ng/ml human recombinant TNFα, read-out: pEC50, transrepression of NFkB activity (converted).
Type: cell-based
Source text: Human A549 lung epithelial cells were engineered to contain a secreted placental alkaline phosphatase gene under the control of the distal region of the NFkB dependent ELAM promoter as previously described in Ray, K. P., Farrow, S., Daly, M., Talabot, F. and Searle, N. “Induction of the E-selectin promoter by interleukin 1 and tumour necrosis factor alpha, and inhibition by glucocorticoids” Biochemical Journal (1997) 328: 707-15.
Compounds were solvated and diluted in DMSO, and transferred directly into assay plates such that the final concentration of DMSO was 0.7%. Following the addition of cells (40K per well), plates were incubated for 1 hr prior to the addition of 3 ng/ml human recombinant TNFα. Following continued incubation for 16 hr, alkaline phosphatase activity was determined by measuring the change in optical density at 405 nm with time following the addition of 0.7 volumes of assay buffer (1 mg/ml p-nitrophenylphosphate dissolved in 1M diethanolamine, 0.28M NaCl, 0.5 mM MgCl2). Dose response curves were constructed from which EC50 values were estimated.

**Q.** How did the EC50 turn out when `COc1ccc(F)cc1C(C)(C)CC(O)(CNc1cccc2c1cnn2-c1ccc(F)cc1)C(F)(F)F` (single isomer, unassigned) [Example 2-B, 1,1,1-Trifluoro-4-[5-fluoro-2-(methyloxy)phenyl]-2-({[1-(4-fluorophenyl)-1H-indazol-4-yl]amino}methyl)-4-methyl-2-pentanol] was run?
**A.** The EC50 was < 3.16 nM.

**Q.** How did the EC50 turn out when `COc1ccc(F)cc1C(C)(C)CC(O)(CNc1cc(C)cc2c1cnn2-c1ccc(F)cc1F)C(F)(F)F` (racemic) [Example 16, 2-({[1-(2,4-Difluorophenyl)-6-methyl-1H-indazol-4-yl]amino}methyl)-1,1,1-trifluoro-4-[5-fluoro-2-(methyloxy)phenyl]-4-methyl-2-pentanol] was run?
**A.** The EC50 was < 3.16 nM.

**Q.** With `CCOC(=O)c1cccc(-n2ncc3c(NCC(O)(CC(C)(C)c4cc(F)ccc4OC)C(F)(F)F)cccc32)c1` (single isomer, unassigned) [Example 6-B, Ethyl 3-(4-{[4-[5-fluoro-2-(methyloxy)phenyl]-2-hydroxy-4-methyl-2-(trifluoromethyl)pentyl]amino}-1H-indazol-1-yl)benzoate] as the molecule, how does the EC50 read?
**A.** The EC50 was < 3.16 nM.

**Q.** For `CC(C)(CC(O)(CNc1cccc2c1cnn2-c1ccc(F)cc1F)C(F)(F)F)c1cccc2c1OCC2` (racemic) [Example 12, 2-({[1-(2,4-Difluorophenyl)-1H-indazol-4-yl]amino}methyl)-4-(2,3-dihydro-1-benzofuran-7-yl)-1,1,1-trifluoro-4-methyl-2-pentanol], which EC50 is on record?
**A.** The EC50 was < 3.16 nM.

**Q.** `COc1ccc(F)cc1C(C)(C)CC(O)(CNc1cccc2c1cnn2-c1ccc(F)cc1)C(F)(F)F` (racemic) [Example 2, 1,1,1-Trifluoro-4-[5-fluoro-2-(methyloxy)phenyl]-2-({[1-(4-fluorophenyl)-1H-indazol-4-yl]amino}methyl)-4-methyl-2-pentanol] was tested. Which EC50 did it give?
**A.** The EC50 was < 3.16 nM.

**Q.** For `COc1ccc(F)cc1C(C)(C)CC(O)(CNc1cccc2c1cnn2-c1ccc(F)cc1F)C(F)(F)F` (racemic) [Example 4, 2-({[1-(2,4-Difluorophenyl)-1H-indazol-4-yl]amino}methyl)-1,1′-trifluoro-4-[5-fluoro-2-(methyloxy)phenyl]-4-methyl-2-pentanol], which EC50 is on record?
**A.** The EC50 was < 3.16 nM.

**Q.** Which EC50 does the source give for `CCOC(=O)c1cccc(-n2ncc3c(NCC(O)(CC(C)(C)c4cccc5c4OCC5)C(F)(F)F)cccc32)c1` (racemic) [Example 9, Ethyl 3-(4-{[4-(2,3-dihydro-1-benzofuran-7-yl)-2-hydroxy-4-methyl-2-(trifluoromethyl)pentyl]amino}-1H-indazol-1-yl)benzoate] here?
**A.** The EC50 was < 3.16 nM.

**Q.** How did the EC50 turn out when `COc1ccc(-n2ncc3c(NCC(O)(CC(C)(C)c4cc(F)ccc4OC)C(F)(F)F)cc(C)cc32)cc1` (stereo not drawn) [Example 19, 1,1,1-Trifluoro-4-[5-fluoro-2-(methyloxy)phenyl]-4-methyl-2-[({6-methyl-1-[4-(methyloxy)phenyl]-1H-indazol-4-yl}amino)methyl]-2-pentanol] was run?
**A.** Its EC50 is < 3.16 nM.

**Q.** How did the EC50 turn out when `COc1ccc(F)cc1C(C)(C)CC(O)(CNc1cc(C)cc2c1cnn2-c1cccc(O)c1)C(F)(F)F` (stereo not drawn) [Example 23, 3-(4-{[4-[5-Fluoro-2-(methyloxy)phenyl]-2-hydroxy-4-methyl-2-(trifluoromethyl)pentyl]amino}-6-methyl-1H-indazol-1-yl)phenol] was run?
**A.** The EC50 was < 3.16 nM.

**Q.** For `COC(=O)c1cccc(-n2ncc3c(NCC(O)(CC(C)(C)c4cc(F)ccc4OC)C(F)(F)F)cccc32)c1` (racemic) [Example 14, Methyl 3-(4-{[4-[5-fluoro-2-(methyloxy)phenyl]-2-hydroxy-4-methyl-2-(trifluoromethyl)pentyl]amino}-1H-indazol-1-yl)benzoate], which EC50 is on record?
**A.** The EC50 was < 3.16 nM.

**Q.** With `CCOC(=O)c1cccc(-n2ncc3c(NCC(O)(CC(C)(C)c4cc(F)ccc4OC)C(F)(F)F)cc(C)cc32)c1` (stereo not drawn) [Example 27, Ethyl 3-(4-{[4-[5-fluoro-2-(methyloxy)phenyl]-2-hydroxy-4-methyl-2-(trifluoromethyl)pentyl]amino}-6-methyl-1H-indazol-1-yl)benzoate] as the molecule, how does the EC50 read?
**A.** The EC50 was < 3.16 nM.

**Q.** For `Cc1cc(NC[C@](O)(CC(C)(C)c2cc(F)ccc2O)C(F)(F)F)c2cnn(-c3ccc(F)cc3F)c2c1` [Example 18, 2(R)-2-[3-({[1-(2,4-Difluorophenyl)-6-methyl-1H-indazol-4-yl]amino}methyl)-4,4,4-trifluoro-3-hydroxy-1,1-dimethylbutyl]-4-fluorophenol], which EC50 is on record?
**A.** Its EC50 is < 3.16 nM.

**Q.** Which EC50 does the source give for `CCOC(=O)c1cccc(-n2ncc3c(NCC(O)(CC(C)(C)c4cc(F)ccc4OC)C(F)(F)F)cccc32)c1` (racemic) [Example 6, Ethyl 3-(4-{[4-[5-fluoro-2-(methyloxy)phenyl]-2-hydroxy-4-methyl-2-(trifluoromethyl)pentyl]amino}-1H-indazol-1-yl)benzoate] here?
**A.** The EC50 was < 3.16 nM.

**Q.** Which EC50 does the source give for `COc1ccc(F)cc1C(C)(C)CC(O)(CNc1cc(C)cc2c1cnn2-c1ccccc1F)C(F)(F)F` (racemic) [Example 25, 1,1,1-Trifluoro-4-[5-fluoro-2-(methyloxy)phenyl]-2-({[1-(2-fluorophenyl)-6-methyl-1H-indazol-4-yl]amino}methyl)-4-methyl-2-pentanol] here?
**A.** Its EC50 is < 3.16 nM.

**Q.** Which EC50 does the source give for `CC(C)(CC(O)(CNc1cccc2c1cnn2-c1ccccc1)C(F)(F)F)c1cccc2c1OCC2` (racemic) [Example 8, 4-(2,3-Dihydro-1-benzofuran-7-yl)-1,1,1-trifluoro-4-methyl-2-{[(1-phenyl-1H-indazol-4-yl)amino]methyl}-2-pentanol] here?
**A.** Its EC50 is < 3.16 nM.

**Q.** How did the EC50 turn out when `COc1ccc(-n2ncc3c(NCC(O)(CC(C)(C)c4cccc5c4OCC5)C(F)(F)F)cccc32)cc1` (racemic) [Example 28, 4-(2,3-Dihydro-1-benzofuran-7-yl)-1,1,1-trifluoro-4-methyl-2-[({1-[4-(methyloxy)phenyl]-1H-indazol-4-yl}amino)methyl]-2-pentanol] was run?
**A.** The EC50 was < 3.16 nM.

**Q.** How did the EC50 turn out when `COc1ccc(F)cc1C(C)(C)CC(O)(CNc1cc(C)cc2c1cnn2-c1ccccc1)C(F)(F)F` (racemic) [Example 15, 1,1,1-Trifluoro-4-[5-fluoro-2-(methyloxy)phenyl]-4-methyl-2-{[(6-methyl-1-phenyl-1H-indazol-4-yl)amino]methyl}-2-pentanol] was run?
**A.** Its EC50 is < 3.16 nM.

**Q.** With `CC(C)(CC(O)(CNc1cccc2c1cnn2-c1ccc(F)cc1)C(F)(F)F)c1cccc2c1OCC2` (racemic) [Example 11, 4-(2,3-Dihydro-1-benzofuran-7-yl)-1,1,1-trifluoro-2-({[1-(4-fluorophenyl)-1H-indazol-4-yl]amino}methyl)-4-methyl-2-pentanol] as the molecule, how does the EC50 read?
**A.** Its EC50 is < 3.16 nM.

**Q.** `COc1ccc(F)cc1C(C)(C)CC(O)(CNc1cccc2c1cnn2-c1ccccc1F)C(F)(F)F` (racemic) [Example 1, 1,1,1-Trifluoro-4-[5-fluoro-2-(methyloxy)phenyl]-2-({[1-(2-fluorophenyl)-1H-indazol-4-yl]amino}methyl)-4-methyl-2-pentanol] was tested. Which EC50 did it give?
**A.** The EC50 was < 3.16 nM.

**Q.** For `COc1cccc(-n2ncc3c(NCC(O)(CC(C)(C)c4cc(F)ccc4OC)C(F)(F)F)cc(C)cc32)c1` (stereo not drawn) [Example 22, 1,1,1-Trifluoro-4-[5-fluoro-2-(methyloxy)phenyl]-4-methyl-2-[({6-methyl-1-[3-(methyloxy)phenyl]-1H-indazol-4-yl}amino)methyl]-2-pentanol], which EC50 is on record?
**A.** The EC50 was < 3.16 nM.

**Q.** How did the EC50 turn out when `COc1ccc(F)cc1C(C)(C)CC(O)(CNc1cccc2c1cnn2-c1ccccc1F)C(F)(F)F` (single isomer, unassigned) [Example 1-A, 1,1,1-Trifluoro-4-[5-fluoro-2-(methyloxy)phenyl]-2-({[1-(2-fluorophenyl)-1H-indazol-4-yl]amino}methyl)-4-methyl-2-pentanol] was run?
**A.** Its EC50 is < 3.16 nM.

**Q.** `CC(C)(CC(O)(CNc1cccc2c1cnn2-c1ccccc1F)C(F)(F)F)c1cccc2c1OCC2` (racemic) [Example 10, 4-(2,3-Dihydro-1-benzofuran-7-yl)-1,1,1-trifluoro-2-({[1-(2-fluorophenyl)-1H-indazol-4-yl]amino}methyl)-4-methyl-2-pentanol] was tested. Which EC50 did it give?
**A.** Its EC50 is < 3.16 nM.

**Q.** For `CC(C)(CC(O)(CNc1cccc2c1cnn2-c1ccncc1)C(F)(F)F)c1cccc2c1OCC2` (racemic) [Example 13, 4-(2,3-Dihydro-1-benzofuran-7-yl)-1,1,1-trifluoro-4-methyl-2-({[1-(4-pyridinyl)-1H-indazol-4-yl]amino}methyl)-2-pentanol], which EC50 is on record?
**A.** The EC50 was < 3.16 nM.

**Q.** With `COC(=O)c1cccc(-n2ncc3c(NCC(O)(CC(C)(C)c4cc(F)ccc4OC)C(F)(F)F)cccc32)c1` (single isomer, unassigned) [Example 14-B, Methyl 3-(4-{[4-[5-fluoro-2-(methyloxy)phenyl]-2-hydroxy-4-methyl-2-(trifluoromethyl)pentyl]amino}-1H-indazol-1-yl)benzoate] as the molecule, how does the EC50 read?
**A.** Its EC50 is < 3.16 nM.
